Reference: article PMC7255104, “Receptor Characterization and Functional Activity of Pyrokinins on the Hindgut in the Adult Mosquito, Aedes aegypti” (Frontiers in Physiology, 2020)
Where a SMILES comes first, the peptide text is derived from it.

Experiments:
[1] = target: T1, A. aegypti PK2-R (Aedes aegypti, UniProt V9P4J1); assay: Heterologous functional receptor assay (aequorin bioluminescence), PK2-R; format: cell-based; conditions: for EC50: CHO-K1 cells transiently expressing PK2-R and aequorin, luminescence normalized to 50 μM ATP, two biological replicates, 4-8 technical replicates each, read-out: EC50, activation of A. aegypti PK2-R
T1 sequence (V9P4J1 1-638): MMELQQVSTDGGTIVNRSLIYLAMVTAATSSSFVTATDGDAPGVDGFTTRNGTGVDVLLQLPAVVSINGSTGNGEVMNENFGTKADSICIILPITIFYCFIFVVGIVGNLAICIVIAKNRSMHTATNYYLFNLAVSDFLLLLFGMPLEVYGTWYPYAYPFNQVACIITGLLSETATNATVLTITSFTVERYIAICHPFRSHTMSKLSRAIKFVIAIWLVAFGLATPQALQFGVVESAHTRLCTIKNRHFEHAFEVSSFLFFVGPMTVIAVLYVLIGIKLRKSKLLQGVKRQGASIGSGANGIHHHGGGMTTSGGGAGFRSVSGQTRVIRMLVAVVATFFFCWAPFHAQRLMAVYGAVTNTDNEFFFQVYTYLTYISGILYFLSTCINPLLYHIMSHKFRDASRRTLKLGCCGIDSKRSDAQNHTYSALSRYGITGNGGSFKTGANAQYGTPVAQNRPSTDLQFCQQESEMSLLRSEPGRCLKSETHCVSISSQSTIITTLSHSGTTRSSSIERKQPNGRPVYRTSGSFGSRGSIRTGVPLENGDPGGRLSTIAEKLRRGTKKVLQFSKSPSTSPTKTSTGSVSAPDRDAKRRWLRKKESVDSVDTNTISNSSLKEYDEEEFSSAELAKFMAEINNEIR
Description: The complete open reading frame was amplified based on the partial ([Nene et al., 2007]) and complete sequences ([Choi et al., 2013]) reported earlier for the A. aegypti PK1-R (Genbank accession: EAT35008.1) and PK2-R (Genbank accession: KC155994.1). Forward 5′-[…]-3′ (PK1-R) or 5′-[…]-3′ (PK2-R) and reverse 5′-[…]-3′ (PK1-R) or 5′-[…]-3′ (PK2-R) primers were designed over the start and stop codons (underlined), respectively, and used to amplify the complete coding sequence using Q5 High-Fidelity DNA polymerase following manufacturer recommendations (New England Biolabs, Whitby, ON). […] The resulting products were cloned into pGEM-T Easy sequencing vector, and miniprep samples were sequenced to verify base accuracy. The receptor constructs were excised using standard restriction enzyme digestion and subcloned into the mammalian expression vector, pcDNA 3.1^+ (Life Technologies, Burlington, ON, Canada). Transfection quality plasmid DNA was purified from an overnight bacterial culture using the PureLink MidiPrep Kit (Invitrogen, Burlington, ON, Canada) following manufacturer guidelines.
Chinese hamster ovary cells (CHO-K1) described previously ([Paluzzi et al., 2012]; [Gondalia et al., 2016]; [Wahedi and Paluzzi, 2018]) were grown in Dulbecco’s modified eagles medium: nutrient F12 (DMEM:F12) media containing 10% heat-inactivated fetal bovine serum (FBS; Wisent, St. Bruno, QC, Canada), 200 μg/mL geneticin, and antimycotic-antibiotic mixture as described previously ([Wahedi and Paluzzi, 2018]). […] Various concentrations of synthesized PK peptides and other peptides (purity > 90%; Genscript, Piscataway, NJ, United States) were prepared in BSA media and loaded in quadruplicate into white 96-well luminescence plates (Greiner Bio-One, Germany).
Luminescence responses to A. aegypti CAPA-1 (GPTVGLFAFPRV-NH2), CAPA-2 (pQGLVPFPRV-NH2) and CAPA-PK1 (AGNSGANSGMWFGPRL-NH2) peptides, along with the R. prolixus PK2 orthologs, PK2a (NTVNFSPRL-NH2), and PK2b (SPPFAPRL-NH2) were examined. A list of peptides used in this study and sequence comparison to native A. aegypti pyrokinin peptides is found in Supplementary Table S1. Cells prepared for the functional assay were loaded into each well of the plate using an automated injector unit and luminescent response was measured with a Synergy 2 Multi-Mode Microplate Reader (BioTek, Winooski, VT, United States). Negative controls were carried out using BSA media alone whereas 50 μM ATP, which activates endogenously expressed purinoceptors ([Iredale and Hill, 1993]; [Michel et al., 1998]), was used as a positive control. Luminescence responses were normalized to ATP responses and analyzed in GraphPad Prism 7.02 (GraphPad Software, San Diego, CA, United States). EC50 values were determined using dose-response curves from multiple biological replicates.

[2] = test system: isolated ilea of female A. aegypti; assay: Ileal motility assay (video recordings); parameters: species or system Aedes aegypti; conditions: Figure 7, 1 μM, RhoprMIP-7 added together with 1 μM RhoprPK2b, mean of 17 preparations
Experimental: Hindgut contraction assays were conducted on isolated […] of female A. aegypti. […] The isolated tissue was secured with minutien pins within a Sylgard-lined petri-dish. Given its high sequence similarity to endogenous A. aegypti PK2 peptides (Supplementary Table S1), we used the R. prolixus PK2b peptide ([Paluzzi and O'Donnell, 2012]), henceforth referred to as RhoprPK2b, for motility bioassays. Commercially synthesized peptides (Genscript, Piscataway, NJ, United States), […] ([…]) and RhoprPK2[…]), were used to examine myomodulatory activity. Serotonin (5-hydroxytryptamine, 5-HT; Sigma-Aldrich, Oakville, ON, Canada), previously shown to stimulate A. aegypti hindgut contractions ([Messer and Brown, 1995]), was used as a stimulatory control. Given the inhibitory properties of myoinhibitory peptides (having the consensus W(X6)W-NH2 carboxyl terminus) on insect hindgut motility ([Lange et al., 2012]), RhoprMIP-7 ([…]; Genscript, Piscataway, NJ, United States; [Paluzzi et al., 2015]) was used as an inhibitory control. […] Unlike the rectum, the mosquito ileum produces weaker contractions that we were unable to measure using an impedance converter as described above. […] The dissected gut was pinned in the midgut and rectum to allow the ileum to freely contract in saline and following treatments. Contractions were recorded for 2 min in saline that was used for baseline activity measurements, followed by three subsequent 2-min recordings, including: […] The RhoprPK2b was added along with the stimulatory or inhibitory compound (5-HT or RhoprMIP-7, respectively), to maintain its 1 μM concentration in the bath. […] To account for any potential changes in tissue contractile activity upon adding solutions to the bath, each of these variables were measured relative to baseline saline recordings of the same preparation as a ratio of change, where a value above or below one indicates an increase or a decrease, (respectively), in the rate, duration or length between each contraction in response to the treatment.

[3] = test system: rectal pad epithelia of female A. aegypti; assay: Scanning ion-selective electrode technique (SIET), Na+ flux; parameters: species or system Aedes aegypti
Experimental: Female mosquitoes were anesthetized on ice for 3 min and dissected in Ca^2+-free A. aegypti saline, as described previously ([Paluzzi et al., 2014]), to limit spontaneous hindgut contractions during ion flux measurements. The isolated rectum was then transferred to a Petri dish with saline, pre-coated with poly-L-lysine ([Paluzzi et al., 2014]) to allow the tissue to adhere to the bottom of the dish.
AedaeCAPA-PK1 or D. melanogaster Droso-leucokinin (NSVVLGKKQRFHSWG-NH2, Genscript, Piscataway, NJ, United States; provided by Prof. Dick Nässel, Stockholm University, Sweden) were solubilized in double distilled water as a 1 mM stock and then diluted in the above-mentioned Ca^2+-free A. aegypti saline to achieve a 1 μM final concentration. Control measurements were obtained by applying an equal volume of saline only, referred to as saline control treatments. […]
SIET measurements were obtained through the Automated Scanning Electrode Technique (ASET) software (Science Wares, East Falmouth, MA, United States). […] Voltage gradients were measured as the microelectrode moved perpendicularly to the tissue surface between two points separated by a distance of 100 μm. […] Following background voltage readings, the ion-selective microelectrode tip was positioned at a distance of 2 μm from the rectal pad epithelia. […] Following measurements at the rectal pad sites, background voltage readings were again recorded at a distance of 3 mm away from the tissue.
Calculation of ion flux used in this study has been described previously ([Paluzzi et al., 2014]). […] The change in flux upon treatment application was calculated by subtracting flux values obtained during saline measurements, in which a positive change indicates increased ion absorption, and a negative change represents a decrease in absorption.

Compound: CC(C)C[C@H](NC(=O)CNC(=O)[C@@H](NC(=O)[C@@H](NC(=O)[C@@H]1CCCN1C(=O)CN)[C@@H](C)O)C(C)C)C(=O)N[C@@H](Cc1ccccc1)C(=O)N[C@@H](C)C(=O)N[C@@H](Cc1ccccc1)C(=O)N1CCC[C@H]1C(=O)N[C@@H](CCCNC(=N)N)C(=O)N[C@H](C(N)=O)C(C)C [AedaeCAPA-1] (H-GPTVGLFAFPRV-NH2)
- activation of PK2-R relative to the highly potent pyrokinins ([1]; CHO-K1 cells expressing PK2-R, very high concentrations): ≤ 25%

Compound: CSCC[C@H](NC(=O)CNC(=O)[C@H](CO)NC(=O)[C@H](CC(N)=O)NC(=O)[C@H](C)NC(=O)CNC(=O)[C@H](CO)NC(=O)[C@H](CC(N)=O)NC(=O)CNC(=O)[C@H](C)N)C(=O)N[C@@H](Cc1c[nH]c2ccccc12)C(=O)N[C@@H](Cc1ccccc1)C(=O)NCC(=O)N1CCC[C@H]1C(=O)N[C@@H](CCCNC(=N)N)C(=O)N[C@@H](CC(C)C)C(N)=O [AedaeCAPA-PK1] (H-AGNSGANSGMWFGPRL-NH2)
- EC50 [1]: 158 nM

Compound: CC(C)C[C@H](NC(=O)[C@H](CCCNC(=N)N)NC(=O)[C@@H]1CCCN1C(=O)[C@H](CO)NC(=O)[C@H](Cc1ccccc1)NC(=O)[C@H](CC(N)=O)NC(=O)[C@@H](NC(=O)[C@@H](NC(=O)[C@@H](N)CC(N)=O)[C@@H](C)O)C(C)C)C(N)=O [RhoprPK2a] (H-NTVNFSPRL-NH2)
- EC50 [1]: 17.5 nM

Compound: CC(C)C[C@H](NC(=O)[C@H](CCCNC(=N)N)NC(=O)[C@@H]1CCCN1C(=O)[C@H](C)NC(=O)[C@H](Cc1ccccc1)NC(=O)[C@@H]1CCCN1C(=O)[C@@H]1CCCN1C(=O)[C@@H](N)CO)C(N)=O [RhoprPK2b] (H-SPPFAPRL-NH2)
- EC50 [1]: 8.54 nM

Compound: AWNSLHGGW-NH2 [RhoprMIP-7]
- duration of each ileal contraction relative to baseline [2]: about 1.9 fold
- ileal contraction frequency relative to baseline [2]: 0.38 fold
- relaxation duration (length of time between ileal contractions) relative to baseline [2]: 3.9 fold

Compound: NSVVLGKKQRFHSWG-NH2 [Droso-leucokinin, D. melanogaster kinin analog used in Na+ transport measurements]
- decrease in Na+ absorption across rectal pad epithelia relative to initial transport in saline ([3]; 1 μM in Ca2+-free saline, absorptive female recta only, mean ± SEM of 10 to 14 preparations, SEM): 201.6 ± 39.0 pmol cm^–2 s^–1
- fold decrease in Na+ absorption compared to saline control ([3]; 1 μM, female rectal pad epithelia): four-fold decrease
- significance of change in Na+ transport versus saline alone ([3]; 1 μM, one-way ANOVA and Tukey's post hoc test): significant
